{
  "source": "patent US11213030B2",
  "about": "“4-(3,4-dihydronaphth-1-yl or 2H-chromen-4-yl)-5-hydroxy-2H-pyradizin-3-ones as herbicides” (FMC Corporation, priority 2017, dated 2022)",
  "type_in_all_cases": "in vivo",
  "key": {"kochia (Kochia scoparia) [1]": {"system": "kochia (Kochia scoparia)", "experiment": "Test A preemergence, kochia", "conditions": "125 g ai/ha, 0 to 100 scale", "excerpt": "(§1) Seeds of plant species selected from barnyardgrass (Echinochloa crus-galli), kochia (Kochia scoparia), ragweed (common ragweed, Ambrosia elatior), ryegrass, It. (Italian ryegrass, Lolium multiflorum), foxtail, green (green foxtail, Setaria viridis), and pigweed (Amaranthus retroflexus) were planted into a blend of loam soil and sand and treated preemergence with a directed soil spray using test chemicals formulated in a non-phytotoxic solvent mixture which included a surfactant. At the same time, plants selected from these weed species and also wheat (Triticum aestivum), corn (Zea mays), blackgrass (Alopecurus myosuroides), and galium (catchweed bedstraw, Galium aparine) were planted in pots containing the same blend of loam soil and sand and treated with postemergence applications of test chemicals formulated in the same manner. Plants ranged in height from 2 to 10 cm and were in the one- to two-leaf stage for the postemergence treatment. Treated plants and untreated controls were maintained in a greenhouse for approximately 10 d, after which time all treated plants were compared to untreated controls and visually evaluated for injury. Plant response ratings, summarized in Table A, are based on a 0 to 100 scale where 0 is no effect and 100 is complete control. A dash (-) response means no test result."}, "[2]": {"system": "blackgrass (Alopecurus myosuroides)", "experiment": "Test A postemergence, blackgrass", "conditions": "0 to 100 scale", "excerpt": "as §1"}, "Foxtail, Giant [3]": {"system": "Foxtail, Giant", "experiment": "Test A preemergence, giant foxtail", "conditions": "125 g ai/ha, 0 to 100 scale"}, "[4]": {"system": "pigweed (Amaranthus retroflexus)", "experiment": "Test A postemergence, pigweed", "conditions": "0 to 100 scale", "excerpt": "as §1"}, "[5]": {"system": "pigweed (Amaranthus retroflexus)", "experiment": "Test A preemergence, pigweed", "conditions": "0 to 100 scale", "excerpt": "as §1"}, "rice (Oryza sativa)": {"system": "rice (Oryza sativa)", "experiment": "Test B flooded paddy test, rice", "conditions": "Flood, 250 g ai/ha applied to paddy water, 2-leaf stage, 13 to 15 d; scale of 0 to 100 where 0 is no effect and 100 is complete control", "procedure": "(§2) Plant species in the flooded paddy test selected from rice (Oryza sativa), sedge, umbrella (small-flower umbrella sedge, Cyperus difformis), ducksalad (Heteranthera limosa), and barnyardgrass (Echinochloa crus-galli) were grown to the 2-leaf stage for testing. At the time of treatment, test pots were flooded to 3 cm above the soil surface, treated by application of test compounds directly to the paddy water, and then maintained at that water depth for the duration of the test. Treated plants and controls were maintained in a greenhouse for 13 to 15 d, after which time all species were compared to controls and visually evaluated. Plant response ratings, summarized in Table B, are based on a scale of 0 to 100 where 0 is no effect and 100 is complete control. A dash (-) response means no test result."}, "kochia (Kochia scoparia) [6]": {"system": "kochia (Kochia scoparia)", "experiment": "Test A postemergence, kochia", "conditions": "0 to 100 scale", "excerpt": "as §1"}, "[7]": {"system": "barnyardgrass (Echinochloa crus-galli)", "experiment": "Test A preemergence, barnyardgrass", "conditions": "0 to 100 scale", "excerpt": "as §1"}, "[8]": {"system": "ryegrass, It. (Italian ryegrass, Lolium multiflorum)", "experiment": "Test A postemergence, Italian ryegrass", "conditions": "0 to 100 scale", "excerpt": "as §1"}, "[9]": {"system": "wheat (Triticum aestivum)", "experiment": "Test A postemergence, wheat", "conditions": "0 to 100 scale", "excerpt": "as §1"}, "Foxtail, Giant [10]": {"system": "Foxtail, Giant", "experiment": "Test A postemergence, giant foxtail", "conditions": "0 to 100 scale"}, "[11]": {"system": "barnyardgrass (Echinochloa crus-galli)", "experiment": "Test A postemergence, barnyardgrass", "conditions": "0 to 100 scale", "excerpt": "as §1"}, "[12]": {"system": "sedge, umbrella (small-flower umbrella sedge, Cyperus difformis)", "experiment": "Test B flooded paddy test, umbrella sedge", "conditions": "Flood, 250 g ai/ha applied to paddy water, 2-leaf stage, 13 to 15 d; scale of 0 to 100 where 0 is no effect and 100 is complete control", "procedure": "as §2"}, "[13]": {"system": "ryegrass, It. (Italian ryegrass, Lolium multiflorum)", "experiment": "Test A preemergence, Italian ryegrass", "conditions": "0 to 100 scale", "excerpt": "as §1"}, "[14]": {"system": "foxtail, green (green foxtail, Setaria viridis)", "experiment": "Test A preemergence, green foxtail", "conditions": "31 g ai/ha, 0 to 100 scale", "excerpt": "as §1"}, "[15]": {"system": "ragweed (common ragweed, Ambrosia elatior)", "experiment": "Test A preemergence, ragweed", "conditions": "0 to 100 scale", "excerpt": "as §1"}, "[16]": {"system": "galium (catchweed bedstraw, Galium aparine)", "experiment": "Test A postemergence, galium", "conditions": "0 to 100 scale", "excerpt": "as §1"}, "[17]": {"system": "ragweed (common ragweed, Ambrosia elatior)", "experiment": "Test A postemergence, ragweed", "conditions": "0 to 100 scale", "excerpt": "as §1"}, "[18]": {"system": "ducksalad (Heteranthera limosa)", "experiment": "Test B flooded paddy test, ducksalad", "conditions": "Flood, 250 g ai/ha applied to paddy water, 2-leaf stage, 13 to 15 d; scale of 0 to 100 where 0 is no effect and 100 is complete control", "procedure": "as §2"}, "corn (Zea mays)": {"system": "corn (Zea mays)", "experiment": "Test A postemergence, corn", "conditions": "0 to 100 scale", "excerpt": "as §1"}, "[19]": {"system": "barnyardgrass (Echinochloa crus-galli)", "experiment": "Test B flooded paddy test, barnyardgrass", "conditions": "Flood, 250 g ai/ha applied to paddy water, 2-leaf stage, 13 to 15 d; scale of 0 to 100 where 0 is no effect and 100 is complete control", "procedure": "as §2"}},
  "data": [
    {"smiles": "CC1=C(c2c(O)c(Cl)nn(C)c2=O)c2cc(C)ccc2CC1", "note": "[Compound 8]", "values": [
      {"measurement": "Plant response rating, Kochia", "setting": "kochia (Kochia scoparia) [1]", "result": 10},
      {"measurement": "Plant response rating, Blackgrass", "setting": "[2]; 31 g ai/ha", "result": 20},
      {"measurement": "Plant response rating, Blackgrass", "setting": "[2]; 125 g ai/ha", "result": 30},
      {"measurement": "Plant response rating, Foxtail, Giant", "setting": "Foxtail, Giant [3]", "result": 70},
      {"measurement": "Plant response rating, Pigweed", "setting": "[4]; 31 g ai/ha", "result": 90},
      {"measurement": "Plant response rating, Pigweed", "setting": "[4]; 125 g ai/ha", "result": 100},
      {"measurement": "Plant response rating, Pigweed", "setting": "[5]; 31 g ai/ha", "result": 10},
      {"measurement": "Plant response rating, Pigweed", "setting": "[5]; 125 g ai/ha", "result": 100},
      {"measurement": "Plant response rating, Rice", "setting": "rice (Oryza sativa)", "result": 0},
      {"measurement": "Plant response rating, Kochia", "setting": "kochia (Kochia scoparia) [6]; 31 g ai/ha", "result": 40},
      {"measurement": "Plant response rating, Kochia", "setting": "kochia (Kochia scoparia) [6]; 125 g ai/ha", "result": 50},
      {"measurement": "Plant response rating, Barnyardgrass", "setting": "[7]; 31 g ai/ha", "result": 0},
      {"measurement": "Plant response rating, Barnyardgrass", "setting": "[7]; 125 g ai/ha", "result": 60},
      {"measurement": "Plant response rating, Ryegrass, It.", "setting": "[8]; 31 g ai/ha", "result": 40},
      {"measurement": "Plant response rating, Ryegrass, It.", "setting": "[8]; 125 g ai/ha", "result": 80},
      {"measurement": "Plant response rating, Wheat", "setting": "[9]; 31 g ai/ha", "result": 0},
      {"measurement": "Plant response rating, Wheat", "setting": "[9]; 125 g ai/ha", "result": 0},
      {"measurement": "Plant response rating, Foxtail, Giant", "setting": "Foxtail, Giant [10]; 31 g ai/ha", "result": 60},
      {"measurement": "Plant response rating, Foxtail, Giant", "setting": "Foxtail, Giant [10]; 125 g ai/ha", "result": 80},
      {"measurement": "Plant response rating, Barnyardgrass", "setting": "[11]; 31 g ai/ha", "result": 50},
      {"measurement": "Plant response rating, Barnyardgrass", "setting": "[11]; 125 g ai/ha", "result": 80},
      {"measurement": "Plant response rating, Sedge, Umbrella", "setting": "[12]", "result": 95},
      {"measurement": "Plant response rating, Ryegrass, It.", "setting": "[13]; 31 g ai/ha", "result": 0},
      {"measurement": "Plant response rating, Ryegrass, It.", "setting": "[13]; 125 g ai/ha", "result": 10},
      {"measurement": "Plant response rating, Foxtail, Green", "setting": "[14]", "result": 0},
      {"measurement": "Plant response rating, Ragweed", "setting": "[15]; 31 g ai/ha", "result": 0},
      {"measurement": "Plant response rating, Ragweed", "setting": "[15]; 125 g ai/ha", "result": 30},
      {"measurement": "Plant response rating, Galium", "setting": "[16]; 31 g ai/ha", "result": 90},
      {"measurement": "Plant response rating, Galium", "setting": "[16]; 125 g ai/ha", "result": 90},
      {"measurement": "Plant response rating, Ragweed", "setting": "[17]; 31 g ai/ha", "result": 80},
      {"measurement": "Plant response rating, Ragweed", "setting": "[17]; 125 g ai/ha", "result": 100},
      {"measurement": "Plant response rating, Ducksalad", "setting": "[18]", "result": 90},
      {"measurement": "Plant response rating, Corn", "setting": "corn (Zea mays); 31 g ai/ha", "result": 0},
      {"measurement": "Plant response rating, Corn", "setting": "corn (Zea mays); 125 g ai/ha", "result": 20},
      {"measurement": "Plant response rating, Barnyardgrass", "setting": "[19]", "result": 60}
    ]}
  ]
}
